# Earlier results, collected in US20060134300A1, “Nutritional supplement for caffeine-containing beverages” (priority 2004, published 2006).
# Columns and labels:
# [1] = system: adrenaline and noradrenaline; settings: triple dose of caffeine
# [2] = system: sympathetic nervous system; settings: intraventricular administration
# rats = settings: rat, in vivo
# [3] = system: subjects put under stress; settings: 100 mg/kg, within an hour of ingesting
# [4] = dose of 150 mg/kg, extended wakefulness
smiles,measurement,setting,value
"Cn1c(=O)c2c(ncn2C)n(C)c1=O [caffeine, 1,3,7-trimethylxanthine]",catecholamines (adrenaline and noradrenaline),[1],significantly increased
"NCCS(=O)(=O)O [taurine, 2-aminoethanesulfonic acid]",sympathetic nerve activity,[2],inhibited sympathetic nerve activity
same,LD 50,rats,"greater than 5,000 mg/kg"
N[C@@H](Cc1ccc(O)cc1)C(=O)O [tyrosine],cognitive performance,[3],improved their cognitive performance
same,lapse probability on a high-event-rate vigilance task,[4],significant reduction
same,performance decline on a psychomotor task,[4],significant amelioration
